Laboratory results reported in patent US9540345B2, “Antiviral compounds” (priority 2013, dated 2017).
Counter-ions that a name gives are not always drawn.

Assays:
[1] = system: pseudotyped HCV GT1b particles (HCVpp); experiment: microbe, parasite or virus in culture; assay type: cell-based, HCV GT1b Con1 strain; conditions: Hepatitis C virus, GT1B, 72 h, read-out: HCVpp GT-1b (EC50, μM)
[2] = system: pseudotyped VSV G particles (VSVpp); experiment: microbe, parasite or virus in culture; assay type: cell-based, vesicular stomatitis virus; conditions: Vesicular stomatitis virus, 72 h, read-out: VSVpp (EC50, μM)

## COc1cccc(-c2c(Cl)cc(Nc3n[nH]c(N)n3)cc2Cl)n1 [Compound 44, N-3-[3,5-Dichloro-4-(6-methoxy-pyridin-2-yl)-phenyl]-1H-[1,2,4]triazole-3,5-diamine]
[1]
  EC50: 1.16 µM
[2]
  EC50: 7.8 µM

## Nc1nc(Nc2ccc(-n3ccccc3=O)cc2)n[nH]1 [Compound 28, 1-[4-(5-Amino-1H-[1,2,4]triazol-3-ylamino)-phenyl]-1H-pyridin-2-one]
[1]
  EC50: 100 µM
[2]
  EC50: ≥ 100 µM

## Nc1nc(Nc2cc(Cl)c(C3=NCCCN3)c(Cl)c2)n[nH]1 [Compound 31, N3-(3,5-dichloro-4-(1,4,5,6-tetrahydropyrimidin-2-yl)phenyl)-1H-1,2,4-triazole-3,5-diamine. trifluoroacetic salt]
[1]
  EC50: 5.45 µM
[2]
  EC50: 4.7 µM

## Nc1nc(Nc2cc(Cl)c(-c3cncnc3)c(Cl)c2)n[nH]1 [Compound 39, N-3-(3,5-Dichloro-4-pyrimidin-5-yl-phenyl)-1H-[1,2,4]triazole-3,5-diamine]
[1]
  EC50: 0.536 µM
[2]
  EC50: 5.1 µM

## Nc1nc(Nc2cc(Cl)c(-c3ccc(Cl)s3)c(Cl)c2)n[nH]1 [Compound 36, N-3-[3,5-Dichloro-4-(5-chloro-thiophen-2-yl)-phenyl]-1H-[1,2,4]triazole-3,5-diamine]
[1]
  EC50: 0.558 µM
[2]
  EC50: 11.9 µM
